≈ marks a conversion by molar mass, not a printed value.
Key:
[1] = cited from earlier work
[2] = system: Haemophilus influenzae ATCC 49247; experiment: MIC, agar dilution method; type: cell-based; settings: for MIC: ATCC49247, Chocolat agar, microaerophile, 16-20 h at 36° C.
Text: (§1) The formulations prepared according to Examples 11, 12 and 13, were used to evaluate the Minimal Inhibitory Concentration (MIC) required to inhibit the growth of the following organisms: Burkholderia cepacia, Haemophilus influenzae, and Pseudomonas aeruginosa, using the agar dilution method based on DIN 58940 and 58944 according to NCCLS (National Committee on Clinical Laboratory Standards) criteria. […] To determine MIC, Petri dishes containing Mueller-Hinton agar supplemented with agar-agar, or chocolate agar were prepared. Dilutions of the formulations prepared under Examples 11, 12, 13 and 14 were prepared in aqua purificata, resulting in solutions containing 1000 μg drug per ml (with exception of the formulation only containing levofloxacin, where a dilution containing 640 μg/ml was prepared). […] Two agar plates were poured for each test concentration and culture medium. After solidification and drying, the agar plates were inoculated with the test organisms and incubated as described in Table 7. [table] The MIC was given as the lowest concentration of the active substance at which there was no macroscopically visible growth. Minimal, barely visible growth or few small individual colonies were evaluated as inhibition. The MIC readings are generally subject to an error of up to two dilutions. […] For Haemophilus spp., it was defined that a breakpoint ≦4 μg/ml is classified as susceptible.

[3] = system: Pseudomonas aeruginosa ATCC 9027; experiment: MIC, agar dilution method; type: cell-based; settings: ATCC9027, Mueller-Hinton agar, aerobic, 16-20 h at 36° C.
Text: as §1

[4] = system: Burkholderia cepacia ATCC 17759; experiment: MIC, agar dilution method; type: cell-based; settings: ATCC17759, Mueller-Hinton agar, aerobic, 16-20 h at 36° C.
Text: as §1

[5] = after single oral dose administration

| MIC [2] [µg/mL] | MIC [3] [µg/mL] | MIC [4] [µg/mL] | SMILES | concentration in sputum exceeds the plasma concentration ([1]; after multiple oral doses) [fold] | concentration in alveolar macrophages exceeds plasma concentration [1, 5] [fold] | concentration in bronchial mucosa exceeds plasma concentration [1, 5] [fold] | susceptibility classification [2] |
| --- | --- | --- | --- | --- | --- | --- | --- |
| 25 (≈ 33.4 µM) | 6.25 (≈ 8.34 µM) | 25 (≈ 33.4 µM) | CC[C@H]1OC(=O)[C@H](C)[C@@H](O[C@H]2C[C@@](C)(OC)[C@@H](O)[C@H](C)O2)[C@H](C)[C@@H](O[C@@H]2O[C@H](C)C[C@H](N(C)C)[C@H]2O)[C@](C)(O)C[C@@H](C)CN(C)[C@H](C)[C@@H](O)[C@]1(C)O [Azi., azithromycin] | 67 | 170 | 29 | resistant |
| 0.25 (≈ 0.692 µM) | 0.5 (≈ 1.38 µM) | 4 (≈ 11.1 µM) | C[C@H]1COc2c(N3CCN(C)CC3)c(F)cc3c(=O)c(C(=O)O)cn1c23 [Levo., levofloxacin] | – | – | – | – |
| 50 (≈ 107 µM) | 0.781 (≈ 1.67 µM) | 50 (≈ 107 µM) | NC[C@H]1O[C@H](O[C@H]2[C@H](O)[C@@H](O[C@H]3O[C@H](CO)[C@@H](O)[C@H](N)[C@H]3O)[C@H](N)C[C@@H]2N)[C@H](N)C[C@@H]1O [Tobr., tobramycin] | – | – | – | resistant |

— US20090232744A1, “Macrolide compositions having improved taste and stability” (priority 2008, published 2009)
